Source: patent US12115178B2, “Acylated active agents and methods of their use for the treatment of autoimmune disorders” (Flagship Pioneering Innovations V, Inc., priority 2018, dated 2024)

Tests used:
CD4+CD25+ Treg cells = assay: In vivo induction of CD4+CD25+ Treg cells in high-fat diet fed mice; conditions: C57BL/6 mice on high-fat diet, 6% in diet ad libitum; compared to EGCG, acetate, or their combination
From the text: Acylated active agents disclosed herein may be useful in modulating autoimmunity markers and for treating autoimmune disorders.

[1] = Assay 1. Stability in Simulated Gastric Fluid (SGF); type: in vitro ADME; conditions: SGF pH 1.6 with pepsin, 1 μM, 37° C.
In short: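 Compound at 1 μM final (from 1 mM DMSO stock) incubated at 37° C in SGF: NaCl medium at pH 1.6 with FaSSIF powder and 0.1 mg/mL pepsin, prepared fresh. Aliquots taken at T0 and regular intervals, quenched with equal volume acetonitrile; LC/MS gives degradation rate.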

[2] = Assay 2. Stability in Simulated Intestinal Fluid (SIF); type: in vitro ADME; conditions: SIF pH 6.7 with pancreatin, 1 μM, 37° C.
In short: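 Compounds at 1 µM (from 1 mM DMSO stock) were incubated at 37 °C with agitation in simulated intestinal fluid: FaSSIF in pH 6.7 phosphate buffer with pancreatin. Aliquots taken from T0 onward were quenched with acetonitrile and analyzed by LC/MS for degradation rate.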

AhR = AhR activation in Caco-2 cells through CYP1A1 mRNA expression; conditions: overnight
Experimental: Caco-2 cells from American Type Culture Collection (ATCC) were plated in a sterile tissue culture treated 96-well plate (ThermoFisher) at […], and grown overnight at 37° C., 5% CO2 in DMEM complete (Gibco) in order to achieve confluence. After the incubation medium was aspirated off of the Caco-2 monolayers, tissues were then washed with 200 μL of warmed PBS solution, and subsequently 190 μL of pre-warmed growth medium was added to each well. Compounds of interest were diluted at a 20× concentration in growth medium containing 2% DMSO, and 10 μL of compound solutions were added to respective wells in triplicate. Compounds where incubated overnight at 37° C., 5% CO2. 2-(1′H-indole-3′-carbonyl)-thiazole-4-carboxylic acid methyl ester (ITE) was used as the positive control for AhR activation at 1 and 100 μM concentrations. At the end of the incubation, medium was aspirated off of the Caco-2 cells, and the cells washed with 100 μL of cold PBS solution. RNA was extracted via the TaqMan™ Gene Expression Cells-to-CT™ Kit (ThermoFisher) according to the manufacturers protocol. The QuantStudio 6 Flex (Applied Biosciences) was used to analyze mRNA levels of CYP1A1 using GAPDH as the endogenous control. TaqMan™ probe sets for both genes were acquired from ThermoFisher. Samples were run in triplicate and data was analyzed using the QuantStudio software and reported as linear (Table 1) and log 2(ΔΔCT) values. Statistical analysis was performed using a two-tailed t-test comparing CYP1A1 levels in the presence of each individual compound to the vehicle negative control.

Caco-2 colonocytes = assay: Human Caco-2 barrier integrity assay (TEER); type: cell-based; conditions: 48 hours
Experimental: At 70-80% confluency, cells were trypsinized and seeded in 0.4 cm^2 transwell collagen I coated membranes with supplemented DMEM in both apical and basolateral compartments. Cells were seeded at a density of 200,000 cells per well and maintained for 10 days to form a polarized barrier with a TransEpithelial […] After 48 hours, TEER readings were taken again and viability was measured by CellTiter 96® AQueous One Solution Cell Proliferation Assay (Promega). The percent change in TEER over the 48 hours was determined and normalized to the 0.1% DMSO control (Table 6).

neutrophil = assay: Neutrophil chemokine production assay; type: cell-based, human; conditions: 12 h
Experimental: A volume 25 mL of human blood was layered over 15 mL of Histopaque®-1077 and centrifuged at 500 g, RT, for 30 min with no break applied to the centrifuge. The PBMC band and Histopaque®-1077 layer were removed leaving behind the bottom red layer which was mixed with 40 mL of 1× red blood cell (RBC) lysis buffer (Sigma-Aldrich) was and split into two 50 mL tubes. The volume for both fractions was brought to 50 mL with RBC lysis buffer, mixed by inversion, and then incubated at RT for 10 min. Solutions were centrifuged at 250 g, for 10 min at RT and the supernatant liquids removed. The reddish pellets were re-suspended in 1 mL of RBC lysis buffer and combined. The cell suspension was incubated for 5 min at RT in RBC lysis buffer. After incubation 45 mL of Hanks Balanced Salt Solution with no calcium, magnesium or phenol red (HBSS−) was added, the cell suspension was spun (250 g for 10 min at RT), and supernatant liquids were removed. The white pellet was re-suspended in 1 mL of HBSS−, and cell counts were determined. The neutrophil cell suspension was brought to a concentration of 1.11e6 cells/mL in RPMI complete (Sigma-Aldrich), and 180 μL of cell suspension was transferred to all wells within a sterile 96-well tissue culture treated plate resulting in 2.0e5 cells/well. […] After incubation, 10 μL of 2 μg/mL LPS solution in RPMI complete was added to each well except for control wells, which received an additional 10 μL of media. Cells were incubated for 12 h (37° C., 5% CO2), after which plates were centrifuged at 250 g, RT, for 5 min and supernatant liquids were obtained and stored at −80° C. until analyzed via Luminex® Multiplex Assay for various chemokines and cytokines. Three data points were acquired from two different blood donors and averaged.

naïve CD4+ T cells = assay: Human regulatory T cell differentiation assay; type: cell-based; conditions: 6 days
Experimental: Peripheral blood mononuclear cells (PBMCs) from whole blood donated by health volunteers were separated by Ficoll-Paque gradient centrifugation and naïve CD4^+ T cells were subsequently isolated using magnet beads (EasySep™ Human Naïve CD4^+ T Cell Isolation Kit, Cambridge, MA). For regulatory T cell (Treg) differentiation assay, naïve CD4^+ T cells were cultured (1-10×10^4 cells) in CTS OpTmizer medium for 6 days and stimulated with 5 ng/ml TGF-β, 100 U/ml IL-2, and ImmunoCult™ Human […] T Cell Activator; Stemcell #10990) with/without our Compounds. Cell viability was determined using a viability dye (eBioscience Fixable Viability Dye eFluor 780: ThermoFisher 65-0865-14) at 1:500 dilution. The cells were gated for Treg, defined as Live, CD11c^−, CD14^−, CD19^−, CD8^−, CD4^+, CD3^+, CD25^+, FOXP3^+. Percent (%) Tregs were calculated as percentage of CD4^+, CD25^+, FOXP3^+ cells over total CD4 T cells. Statistical analysis was performed with GraphPad Prism Software Using One-Way ANOVA.

[3] = system: Primary Human Peripheral Blood Mononuclear Cells (PBMCs); assay: Inflammatory signals in LPS-treated primary human PBMCs; type: cell-based; conditions: 100 uM, 24 hours
Experimental: Human donor blood (8 mL) was collected in sodium citrate CPT tubes and centrifuged at 1,600×g for 20 minutes at room temperature. Buffy coat containing PBMCs was collected and transferred to a 50 mL conical tube containing 30 mL of RPMI-1640 medium at room temperature (supplemented with penicillin-streptomycin). PBMCs samples were centrifuged at 400×g for 10 minutes at 10° C. The pelleted PBMCs were washed twice in 10 ml of RPMI-1640 medium (supplemented with penicillin-streptomycin), then resuspended in RPMI-1640 medium (supplemented with penicillin-streptomycin, fetal bovine serum, and L-Glutamine). PBMCs were filtered through a 70 micron mesh to remove any cellular debris. […] PBMCs in a 96-well plate were rested for 30 minutes in a 37° C., 5% CO2 incubator, then subsequently treated with 10 μl of indicated compound. After 2 hours 10 μL of LPS (O111:B4) 1 mg/mL was added to test wells. After 24 hours of incubation at 37° C., 5% CO2, 100 μL of cell supernatant was collected and transferred to a 96-well plate (non-tissue treated, flat bottom). The plate was centrifuged at 350×g for 5 minutes at room temperature, and then the clear supernatant transferred to a new 96-well plate (non-tissue treated, flat bottom). The remaining cells were tested for viability using CellTiter-Glo® Luminescent Cell Viability Assay (Promega). The supernatant was analyzed for TNFα, IL-6 and […] Systems), using Luminex Immunoassay Technology (MAGPIX System). Cytokine levels of LPS treated DMSO control samples were set to 100%, and compound treated samples were expressed relative to this (Table 3).

[4] = system: adoptive T-cell transfer mice; assay: Adoptive T-cell transfer study; type: in vivo, CB-17 SCID mice; conditions: compound 44 100 mg/kg, olsalazine 30 mg/kg, through day 42, compared to the vehicle control
From the text: On study day 0, naïve T-cells were obtained from the spleen of 11 to 12 week-old Balb/C mice using the SCID Cell Separation Protocol with the following labelling scheme; CD4+CD45RB^highCD25− and CD4+CD45RB^lowCD25+ cell (APC CD4 Antibody (100412), FITC CD45RB Antibody (103306), PE CD25 Antibody (101904), from BioLegend, San Diego, CA, and CD4 cell enrichment kit: 19752A, Stemcell Technologies, Cambridge, MA) and the 4×10^5 of CD4^+CD45RB^highCD25− cells were transferred 6-7 weeks old CB-17 SCID mice. Recipient mice were randomized based on their body weight (n=12 mice/group), and received […] of vehicle (0.5% methyl-cellulose) (vehicle control), 0.5 mg per mouse of anti-IL-12 (positive control), 30 mg/kg of olsalazine (positive treatment group), and 100 mg/kg of compound 44 (compound treatment group) through day 42. On day 42, animals were anesthetized with Isoflurane and bled to exsanguination followed by cervical dislocation. The entire colon was removed and the overall efficacy of compound 44 was assessed based on colon length and weight per length. […] Statistical analysis was performed with GraphPad Prism (GraphPad Software). Mann-Whitney U test was used to assess significance between the vehicle control and each treatment group.

SMILES: CC(=O)Oc1cc(OC(C)=O)c2c(c1)O[C@H](c1cc(OC(C)=O)c(OC(C)=O)c(OC(C)=O)c1)[C@H](OC(=O)c1cc(OC(C)=O)c(OC(C)=O)c(OC(C)=O)c1)C2 [Compound 2, [(2R,3R)-5,7-diacetoxy-2-(3,4,5-triacetoxyphenyl)chroman-3-yl] 3,4,5-triacetoxybenzoate]
- CD4+CD25+ Treg cells (CD4+CD25+ cell counts as a percentage of all CD4+ T cells, FIG. 1) (CD4+CD25+ Treg cells): induce CD4^+CD25^+ Treg cells
- Assay 1 (SGF) (% Remaining @ 1 hour) [1]: C (>75% of the tested compound remaining)
- Assay 2 (SIF) (% @ Remaining 4 hours) [2]: A (<25% of the tested compound remaining)

SMILES: O=C(O[C@@H]1Cc2c(O)cc(O)cc2O[C@@H]1c1cc(O)c(O)c(O)c1)c1cc(O)c(O)c(O)c1 [EGCG, epigallocatechin gallate]
- Average CYP1A1 mRNA levels (AhR; 0.1 μM): − (- = <2-fold Vehicle)
- Average CYP1A1 mRNA levels (AhR; 1.0 μM): − (- = <2-fold Vehicle)
- % Change in TEER from DMSO (Caco-2 colonocytes; 100 nM + cytokines): − (<125%: −)
- % Change in TEER from DMSO (Caco-2 colonocytes; 1 μM + cytokines): − (<125%: −)
- % IL-8 (Vehicle + LPS = 100%) (neutrophil; 0.1 μM): − (− = >90% Vehicle)
- % MIP-1α (Vehicle + LPS = 100%) (neutrophil; 0.1 μM): − (− = >90% Vehicle)
- % MIP-1β (DMSO + LPS = 100%) (neutrophil; 0.1 μM): − (− = >90% Vehicle)
- % IL-8 (Vehicle + LPS = 100%) (neutrophil; 1.0 μM): − (− = >90% Vehicle)
- % MIP-1α (Vehicle + LPS = 100%) (neutrophil; 1.0 μM): − (− = >90% Vehicle)
- % MIP-1β (DMSO + LPS = 100%) (neutrophil; 1.0 μM): − (− = >90% Vehicle)
- Cell viability % DMSO (naïve CD4+ T cells; 100 nM): = (90%> <110%: =)
- Treg induction % DMSO (naïve CD4+ T cells; 100 nM): = (90%> <110%: =)
- Cell viability % DMSO (naïve CD4+ T cells; 1 uM): = (90%> <110%: =)
- Treg induction % DMSO (naïve CD4+ T cells; 1 uM): = (90%> <110%: =)

SMILES: CC(O)CC(=O)O (stereo not drawn) [beta-hydroxybutyric acid, β-hydroxybutyric acid]
- % Change in TEER from DMSO (Caco-2 colonocytes; 200 μM + cytokines): + (125%> <150%: +)
- % Change in TEER from DMSO (Caco-2 colonocytes; 2 mM + cytokines): − (<125%: −)
- % IL-8 (Vehicle + LPS = 100%) (neutrophil; 200.0 μM): − (− = >90% Vehicle)
- % MIP-1α (Vehicle + LPS = 100%) (neutrophil; 200.0 μM): − (− = >90% Vehicle)
- % MIP-1β (DMSO + LPS = 100%) (neutrophil; 200.0 μM): + (+ = <90% Vehicle)
- % IL-8 (Vehicle + LPS = 100%) (neutrophil; 2000.0 μM): + (+ = <90% Vehicle)
- % MIP-1α (Vehicle + LPS = 100%) (neutrophil; 2000.0 μM): ++ (++ = <70%Vehicle)
- % MIP-1β (DMSO + LPS = 100%) (neutrophil; 2000.0 μM): + (+ = <90% Vehicle)
- IL1β % DMSO control [3]: − ((−) >110% DMSO)
- IL6 % DMSO control [3]: = ((=) 90%> <110% DMSO)
- TNFα % of DMSO control [3]: − ((−) >110% DMSO)

SMILES: O=C(O)c1cc(/N=N/c2ccc(O)c(C(=O)O)c2)ccc1O [olsalazine, reference compound]
- colon weight per length (FIG. 3B) [4]: significantly increased the colon weight per length
